Experimental data from article PMC12254266, “Multicolored sequential resonance energy transfer for detection of simultaneous ligand binding at G protein-coupled receptors” (Nature Communications, 2025).
Values joined by “and” are separate entries in the source; they are usually repeats but may differ in a detail not shown here. Identical values can stand only once. Like-named read-outs stand apart in the source and are kept apart here.

Key:
[1] = target: T1, FFA1 (Homo sapiens, UniProt O14842); assay: Ca2+ mobilisation (Fura2) in Flp-In T-REx 293 cells expressing Nluc-FFA1, FFA1-Nluc or untagged FFA1; assay type: cell-based; parameters: expressed in transfected cells
How it was run: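 520 nm emission read at 340 and 380 nm excitation over 90 s spanning compound addition. Response taken as peak 340/380 ratio after subtracting pre-addition ratios.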

[2] = target: T2, FFA1-Nluc (Homo sapiens, UniProt O14842); assay: DISCo-BRET (endpoint, spectra scan, kinetics) with TUG-2591 and TUG-2597 at C terminal Nluc tagged FFA1; assay type: binding; parameters: expressed in transfected cells; details: for Specific BRET (690/450): Sup Fig 3Bi
How it was run: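 After Nano-Glo substrate (1:800 final), ligand-treated FFA1-Nluc or Nluc-FFA1 cells, doxycycline-induced (100 ng/mL), were read. Kinetic association/dissociation runs were at 25 °C; endpoint and 440–740 nm spectra came after 5 min at 37 °C. Non-specific signal came from competing ligands at high concentration.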

[3] = target: T1, FFA1; assay: NanoBiT arrestin-3 recruitment in HEK293T cells; assay type: cell-based; parameters: expressed in transfected cells; host or cells: HEK293T, transient; details: ± SEM
Protocol: For arrestin-3 recruitment assays, HEK293T cells were transfected with FFA1 receptor and a bystander NanoBiT split luciferase arrestin-3 recruitment biosensor. Cells were transfected and plated simultaneously in a reverse transfection protocol into a poly-D-lysine coated white 96-well plate. Per well, 60,000 cells were transfected with 5 ng plasmid expressing LgBiT with a N-terminal Lyn11 plasma membrane localisation tag, 5 ng plasmid expressing bovine arrestin-3 fused at its N-terminal to SmBiT tag and 30 ng plasmid expressing the human FFA1 receptor. Total DNA was made up to 100 ng total/well with empty pcDNA3 vector and transfected to cell suspension with 0.6 µg/well PEI. Following transfection cells were cultured for 24 h before use. On the day of assay, cells were washed twice with HBSS and incubated in HBSS for 30 min at 37 °C. NanoGlo substrate was added at a final 1:800 dilution and incubated in the dark for 10 min at 37 °C. […] Raw luminescence values were divided by baseline signal (average of first 5 data points prior to compound addition) and vehicle measurements subtracted from agonist treatment. Area under curves were calculated and concentration response curves plotted.

[4] = target: T2, FFA1-Nluc; assay: Bystander BRET internalisation assay, FFA1-Nluc in HEK293T cells; assay type: cell-based; parameters: expressed in transfected cells; host or cells: HEK293T (ATCC, CRL-3216), transient; details: in words; up to 60 min
Protocol: Cells were transfected using a reverse transfection protocol while plating into a poly-D-lysine coated white 96-well plates. Cells were plated at 60,000 cells with 100 ng of plasmid DNA and 0.6 µg of polyethyleneimine (PEI) per well. Cells were cultured for 24 h before washing with HBSS and incubating in HBSS at 37 °C for 30 min. NanoGlo substrate was added a final 1:800 dilution and plates incubated for 10 min at 37 °C. […] After 5 min of baseline measurements, readings were paused and test compounds added to the plate.

[5] = TUG-2597 […] first, then increasing TUG-2591 (Fig. 6H)

T2 sequence (O14842 whole entry): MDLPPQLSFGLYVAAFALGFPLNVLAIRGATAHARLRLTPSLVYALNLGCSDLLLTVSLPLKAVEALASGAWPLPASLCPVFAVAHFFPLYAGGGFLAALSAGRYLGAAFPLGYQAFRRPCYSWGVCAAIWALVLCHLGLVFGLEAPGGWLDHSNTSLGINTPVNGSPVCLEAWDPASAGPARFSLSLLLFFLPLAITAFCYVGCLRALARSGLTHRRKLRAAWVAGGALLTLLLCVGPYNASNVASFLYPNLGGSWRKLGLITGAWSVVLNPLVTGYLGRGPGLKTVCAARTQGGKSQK
T1 sequence (O14842 whole entry): as above

pEC50 ([1]; Ca2+ data, mean±SEM, NR = No response): 6.47±0.16
Ca2+ Response as a % of T360 Response ([1]; FFA1-Nluc cells, log[ligand] -7, technical replicates): 8.16%
EMax ([1]; percentage of response to 10 μM T360, NR = No response): 73±9%
Kd ([2]; FFA1-Nluc, […] TUG-2597, read-out: Kd, DISCo-BRET saturation SulfoCy5/NBD (Sup Fig 3Biii)): 64 nM
Kd ([2]; FFA1-Nluc, […] TUG-2597, read-out: Kd, DISCo-BRET saturation SulfoCy5/NBD (Sup Fig 3Ciii)): 140 nM
Kd ([2]; FFA1-Nluc, […] TUG-2597, read-out: Kd, DISCo-BRET saturation SulfoCy5/Nluc (Sup Fig 3Bi)): 57 nM
Kd ([2]; FFA1-Nluc, […] TUG-2597, read-out: Kd, DISCo-BRET saturation SulfoCy5/Nluc (Sup Fig 3Ci)): 81 nM
kOff DISCo-BRET SulfoCy5/NBD ([2]; TUG-2591 100 nM + TUG-2597 […], displacing ligand TUG-905 10 μM): 0.036 min⁻¹
kOn DISCo-BRET Single Concentration ([2]; TUG-2591 100 nM added after TUG-2597 […]): 1200000 M⁻¹ min⁻¹
Kd ([2]; TUG-2591 added after TUG-2597, read-out: Kd DISCo-BRET Single Concentration (kinetic)): 91 nM
kOff DISCo-BRET Multiple Concentration [2, 5]: 0.11 min⁻¹
kOn DISCo-BRET Multiple Concentration [2, 5]: 500000 M⁻¹ min⁻¹
Kd ([2]; TUG-2597 […] first, then increasing TUG-2591 (Fig. 6H), read-out: Kd DISCo-BRET Multiple Concentration (kinetic)): 220 nM
kOff DISCo-BRET Single Concentration ([2]; based on the value calculated in the multiple ligand experiment in Fig. 6H): 0.11 min⁻¹
Kd ([2]; in presence of […] TUG-2597, either construct, read-out: Kd, DISCo-BRET saturation (area under SulfoCy5 / NBD peaks)): 50 to 100 nM
kOff DISCo-BRET SulfoCy5/NBD ([2]; tracers 1.0 μΜ / 3.16 μΜ, displacing ligand TUG-905 (30 μΜ)): 0.032 min⁻¹
EMax (% TUG-905) arrestin-3 recruitment ([3]; percentage of the response to 10 μM TUG-905): 91 ± 6%
pEC50 arrestin-3 recruitment ([3]; N=3): 7.5 ± 0.4
internalization of FFA1-Nluc [4]: No internalization
SMILES: Cc1cc(OCCCNC(=O)CCCN2\C(=C/C=C/C=C/C3=[N+](C)c4ccc(S(=O)(=O)[O-])cc4C3(C)C)C(C)(C)c3ccccc32)ccc1-c1cccc(COc2ccc(CCC(=O)O)c(F)c2)c1 [TUG-2591]
Ca2+ Response as a % of T360 Response ([1]; FFA1-Nluc cells, log[ligand] -6.5, technical replicates): 55.49% and 52.86% and 28.95% and 51.39% and 72.16% and 71.58% and 70.75% and 43.70% and 49.38%
Ca2+ Response as a % of T360 Response ([1]; Nluc-FFA1 cells, log[ligand] -6.5, technical replicates): 34.81% and 37.98% and 35.96% and 31.33% and 37.74% and 35.87% and 21.49% and 18.21% and 19.57%
Ca2+ Response as a % of T360 Response ([1]; Nluc-FFA1 cells, log[ligand] -7, technical replicates): 17.82% and 28.31% and 29.67% and 8.27% and 1.38% and 7.74% and -0.10% and 0.12%
Ca2+ Response as a % of T360 Response ([1]; log[Ligand] -5, single technical replicates): 61.66% and 51.52% and 46.84% and 86.56% and 82.15% and 71.83% and 71.15% and 53.72%
Ca2+ Response as a % of T360 Response ([1]; log[Ligand] -5.5, single technical replicates): 62.71% and 47.16% and 58.62% and 85.53% and 80.90% and 77.51% and 55.09% and 51.22%
Ca2+ Response as a % of T360 Response ([1]; log[Ligand] -6, single technical replicates): 62.82% and 60.50% and 58.53% and 87.03% and 71.98% and 71.50% and 53.51% and 60.26% and 56.70%
Ca2+ Response as a % of T360 Response ([1]; log[Ligand] -6.5, single technical replicates): 34.81% and 37.98% and 35.96% and 31.33% and 37.74% and 35.87% and 21.49% and 18.21% and 19.57%
Ca2+ Response as a % of T360 Response ([1]; log[Ligand] -7, single technical replicates): 17.82% and 28.31% and 29.67% and 8.27% and 1.38% and 7.74% and -0.10% and 0.12% and -1.53%
Ca2+ Response as a % of T360 Response ([1]; log[Ligand] -8, single technical replicates): 10.54% and 11.17% and 19.68% and 8.20% and 7.07% and 9.22% and 0.11% and 1.85% and 0.30%
Ca2+ Response as a % of T360 Response ([1]; log[Ligand] -9, single technical replicates): 1.04% and 5.22% and 4.78% and 4.50% and 4.79% and 3.13% and 2.97% and -0.0331% and -1.56%
Ca2+ Response as a % of T360 Response ([1]; untagged FFA1 cells, log[ligand] -6.5, technical replicates): 69.40% and 67.64% and 73.36% and 82.87% and 85.96% and 73.97% and 51.16% and 43.14% and 56.15% and 83.71% and 86.53% and 111.93%
Specific BRET (540/450) ([2]; 10 nM TUG-2591, + TUG-2597): 0.2063 and 0.1967 and 0.1514 and 0.1434 and 0.1849 and 0.1798
Specific BRET (690/450) ([2]; TUG-2591 56 nM, with TUG-2597): 0.0527 and 0.0499 and 0.0741 and 0.0890 and 0.0785 and 0.0761 and 0.0666 and 0.0608
Specific BRET (690/450) ([2]; TUG-2591 100 nM, with TUG-2597): 0.0715 and 0.0673 and 0.0821 and 0.0713 and 0.0718 and 0.0721 and 0.1131 and 0.1106
Specific BRET (540/450) ([2]; Sup Fig 3Bii, TUG-2591 10 nM, with TUG-2597 + TUG-905): 0.2427 and 0.2316 and 0.2211 and 0.2363 and 0.1842 and 0.1961
Specific BRET (540/450) ([2]; Sup Fig 3Bii, TUG-2591 56 nM, with TUG-2597): 0.1505 and 0.1512 and 0.1284 and 0.1402 and 0.0985 and 0.0926
Specific BRET (540/450) ([2]; Sup Fig 3Bii, TUG-2591 56 nM, with TUG-2597 + TUG-905): 0.1690 and 0.2045 and 0.2352 and 0.2122 and 0.1905 and 0.1776
Specific BRET (540/450) ([2]; Sup Fig 3Bii, TUG-2591 100 nM, with TUG-2597): 0.1528 and 0.1591 and 0.1221 and 0.0973 and 0.0962 and 0.0870
Specific BRET (540/450) ([2]; Sup Fig 3Bii, TUG-2591 100 nM, with TUG-2597 + TUG-905): 0.1931 and 0.1764 and 0.2349 and 0.2150 and 0.1675 and 0.1714
Specific BRET (690/540) ([2]; Sup Fig 3Biii, TUG-2591 56 nM, with TUG-2597): 0.0349 and 0.0333 and 0.0476 and 0.0572 and 0.0548 and 0.0534 and 0.0437 and 0.0392
Specific BRET (690/540) ([2]; Sup Fig 3Biii, TUG-2591 100 nM, with TUG-2597): 0.0480 and 0.0458 and 0.0524 and 0.0450 and 0.0542 and 0.0749 and 0.0751
Specific BRET (690/540) ([2]; [TUG-2591] 100 nM, with TUG-2597): 0.0559 and 0.0537 and 0.05545 and 0.05225 and 0.03465 and 0.04165
